Test results from US9024017B2, “Octahydro-cyclopentapyrrolyl antagonists of CCR2” (Janssen Pharmaceutica NV, priority 2012, dated 2015).

Target: T1, CCR2 (Homo sapiens, UniProt P41597)
T1 construct: host or cells: THP-1 (human monocytic cell line)
Experiment: MCP-1 Receptor Binding Assay in THP-1 Cells
Conditions: read-out: MCP1B_v3 IC50
Procedure, shortened: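 Human monocytic THP-1 cells incubated 2 h at 30 °C with 0.5 nM 125I-MCP-1 and varying concentrations of test compound or unlabelled MCP-1. Cells filter-harvested and counted by scintillation; blank subtracted, compared with vehicle; nonspecific binding with 1 μM cold MCP-1.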

T1 sequence (P41597 whole entry): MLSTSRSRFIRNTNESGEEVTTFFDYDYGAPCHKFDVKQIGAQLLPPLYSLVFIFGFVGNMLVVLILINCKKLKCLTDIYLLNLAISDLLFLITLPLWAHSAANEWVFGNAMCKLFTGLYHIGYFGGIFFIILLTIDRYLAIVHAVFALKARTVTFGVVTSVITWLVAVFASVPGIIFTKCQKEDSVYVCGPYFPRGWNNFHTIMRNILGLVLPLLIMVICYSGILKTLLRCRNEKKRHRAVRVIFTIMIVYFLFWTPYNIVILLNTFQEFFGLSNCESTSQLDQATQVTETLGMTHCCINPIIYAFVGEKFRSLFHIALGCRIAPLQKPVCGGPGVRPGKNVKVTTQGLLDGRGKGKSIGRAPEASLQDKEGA

| Structure (SMILES) | IC50 [nM] |
| --- | --- |
| COC1COCCC1N[C@@H]1C[C@H]2CN(S(C)(=O)=O)C[C@@]2(C(=O)N2CCc3ncc(C(F)(F)F)cc3C2)C1 (relative stereo) [Example 91, ((3aR,5R,6aR)-5-(((3S*,4S*)-3-Methoxytetrahydro-2H-pyran-4-yl)amino)-2-(methylsulfonyl)octahydrocyclopenta[c]pyrrol-3a-yl)(3-(trifluoromethyl)-7,8-dihydro-1,6-naphthyridin-6(5H)-yl)methanone] | 610 |
| COC1COCCC1N[C@@H]1C[C@H]2CN(S(=O)(=O)Cc3ccccc3)C[C@@]2(C(=O)N2CCc3ncc(C(F)(F)F)cc3C2)C1 (relative stereo) [Example 92, ((3aR,5R,6aR)-2-(Benzylsulfonyl)-5-(((3S*,4S*)-3-methoxytetrahydro-2H-pyran-4-yl)amino)octahydrocyclopenta[c]pyrrol-3a-yl)(3-(trifluoromethyl)-7,8-dihydro-1,6-naphthyridin-6(5H)-yl)methanone] | 1100 |
| COC1COCCC1N[C@@H]1C[C@H]2CN(S(=O)(=O)CCc3ccccc3)C[C@@]2(C(=O)N2CCc3ncc(C(F)(F)F)cc3C2)C1 (relative stereo) [Example 93, ((3aR,5R,6aR)-5-(((3S*,4S*)-3-Methoxytetrahydro-2H-pyran-4-yl)amino)-2-(phenethylsulfonyl)octahydrocyclopenta[c]pyrrol-3a-yl)(3-(trifluoromethyl)-7,8-dihydro-1,6-naphthyridin-6(5H)-yl)methanone] | 980 |
| COC1COCCC1N[C@@H]1C[C@H]2CN(C3CC3)C[C@@]2(C(=O)N2CCc3ncc(C(F)(F)F)cc3C2)C1 (relative stereo) [Example 94, ((3aR,5R,6aR)-2-Cyclopropyl-5-(((3S*,4S*)-3-methoxytetrahydro-2H-pyran-4-yl)amino)octahydrocyclopenta[c]pyrrol-3a-yl)(3-(trifluoromethyl)-7,8-dihydro-1,6-naphthyridin-6(5H)-yl)methanone] | 180 |
| COC1COCCC1N[C@@H]1C[C@H]2CN(C3CC3)C[C@@]2(C(=O)N2CCc3ccc(C(F)(F)F)cc3C2)C1 (relative stereo) [Example 95, ((3aR,5R,6aR)-2-Cyclopropyl-5-(((3S*,4S*)-3-methoxytetrahydro-2H-pyran-4-yl)amino)octahydrocyclopenta[c]pyrrol-3a-yl)(7-(trifluoromethyl)-3,4-dihydroisoquinolin-2(1H)-yl)methanone] | 30 |
| COC1COCCC1N[C@@H]1C[C@H]2CN(C(C)C)C[C@@]2(C(=O)N2CCc3ncc(C(F)(F)F)cc3C2)C1 (relative stereo) [Example 96, ((3aR,5R,6aR)-2-Isopropyl-5-(((3S*,4S*)-3-methoxytetrahydro-2H-pyran-4-yl)amino)octahydrocyclopenta[c]pyrrol-3a-yl)(3-(trifluoromethyl)-7,8-dihydro-1,6-naphthyridin-6(5H)-yl)methanone] | 1220 |
| CCN1C[C@@H]2C[C@@H](NC3CCOCC3OC)C[C@]2(C(=O)N2CCc3ncc(C(F)(F)F)cc3C2)C1 (relative stereo) [Example 98, ((3aR,5R,6aR)-2-Ethyl-5-(((3S*,4S*)-3-methoxytetrahydro-2H-pyran-4-yl)amino)octahydrocyclopenta[c]pyrrol-3a-yl)(3-(trifluoromethyl)-7,8-dihydro-1,6-naphthyridin-6(5H)-yl)methanone] | 630 |
| COC1COCCC1N[C@@H]1C[C@H]2CN(C3COC3)C[C@@]2(C(=O)N2CCc3ncc(C(F)(F)F)cc3C2)C1 (relative stereo) [Example 99, ((3aR,5R,6aR)-5-(((3S*,4S*)-3-methoxytetrahydro-2H-pyran-4-yl)amino)-2-(oxetan-3-yl)octahydrocyclopenta[c]pyrrol-3a-yl)(3-(trifluoromethyl)-7,8-dihydro-1,6-naphthyridin-6(5H)-yl)methanone] | 130 |
| COC1COCCC1N[C@@H]1C[C@H]2CN(C3COC3)C[C@@]2(C(=O)N2CCc3ccc(C(F)(F)F)cc3C2)C1 (relative stereo) [Example 100, ((3aR,5R,6aR)-5-(((3S*,4S*)-3-Methoxytetrahydro-2H-pyran-4-yl)amino)-2-(oxetan-3-yl)octahydrocyclopenta[c]pyrrol-3a-yl)(7-(trifluoromethyl)-3,4-dihydroisoquinolin-2(1H)-yl)methanone] | 30 |
| COC1COCCC1N[C@@H]1C[C@H]2CN(Cc3ccccc3)C[C@@]2(C(=O)N2CCc3ncc(C(F)(F)F)cc3C2)C1 (relative stereo) [Example 101, ((3aR,5R,6aR)-2-Benzyl-5-(((3S*,4S*)-3-methoxytetrahydro-2H-pyran-4-yl)amino)octahydrocyclopenta[c]pyrrol-3a-yl)(3-(trifluoromethyl)-7,8-dihydro-1,6-naphthyridin-6(5H)-yl)methanone] | 370 |
| COC1COCCC1N[C@@H]1C[C@H]2CN(CCc3ccccc3)C[C@@]2(C(=O)N2CCc3ncc(C(F)(F)F)cc3C2)C1 (relative stereo) [Example 102, ((3aR,5R,6aR)-5-(((3S*,4S*)-3-Methoxytetrahydro-2H-pyran-4-yl)amino)-2-phenethyloctahydrocyclopenta[c]pyrrol-3a-yl)(3-(trifluoromethyl)-7,8-dihydro-1,6-naphthyridin-6(5H)-yl)methanone] | 1000 |
| COC1COCCC1N[C@@H]1C[C@H]2CN(CCCc3ccccc3)C[C@@]2(C(=O)N2CCc3ncc(C(F)(F)F)cc3C2)C1 (relative stereo) [Example 103, ((3aR,5R,6aR)-5-(((3S*,4S*)-3-Methoxytetrahydro-2H-pyran-4-yl)amino)-2-(3-phenylpropyl)octahydrocyclopenta[c]pyrrol-3a-yl)(3-(trifluoromethyl)-7,8-dihydro-1,6-naphthyridin-6(5H)-yl)methanone] | 1000 |
| COC1COCCC1N[C@@H]1C[C@H]2CN(C3CCOCC3OC)C[C@@]2(C(=O)N2CCc3ncc(C(F)(F)F)cc3C2)C1 (relative stereo) [Example 104, ((3aR,5R,6aR)-2-((3S*,4S*)-3-Methoxytetrahydro-2H-pyran-4-yl)-5-(((3S*,4S*)-3-methoxytetrahydro-2H-pyran-4-yl)amino)octahydrocyclopenta[c]pyrrol-3a-yl)(3-(trifluoromethyl)-7,8-dihydro-1,6-naphthyridin-6(5H)-yl)methanone] | 1980 |
| COC1COCCC1N[C@@H]1C[C@H]2CN(C3CCOCC3OC)C[C@@]2(C(=O)N2CCc3ccc(C(F)(F)F)cc3C2)C1 (relative stereo) [Example 105, ((3aR,5R,6aR)-2-((3S*,4S*)-3-Methoxytetrahydro-2H-pyran-4-yl)-5-(((3S*,4S*)-3-methoxytetrahydro-2H-pyran-4-yl)amino)octahydrocyclopenta[c]pyrrol-3a-yl)(7-(trifluoromethyl)-3,4-dihydroisoquinolin-2(1H)-yl)methanone] | 120 |
| COC1COCCC1N[C@@H]1C[C@H]2CN(CC(=O)N(C)C)C[C@@]2(C(=O)N2CCc3ncc(C(F)(F)F)cc3C2)C1 (relative stereo) [Example 106, 2-((3aR,5R,6aR)-5-(((3S*,4S*)-3-Methoxytetrahydro-2H-pyran-4-yl)amino)-3a-(3-(trifluoromethyl)-5,6,7,8-tetrahydro-1,6-naphthyridine-6-carbonyl)hexahydrocyclopenta[c]pyrrol-2(1H)-yl)-N,N-dimethylacetamide] | 2800 |
| COC(=O)CN1C[C@@H]2C[C@@H](NC3CCOCC3OC)C[C@]2(C(=O)N2CCc3ncc(C(F)(F)F)cc3C2)C1 (relative stereo) [Example 107, Methyl 2-((3aR,5R,6aR)-5-(((3S*,4S*)-3-methoxytetrahydro-2H-pyran-4-yl)amino)-3a-(3-(trifluoromethyl)-5,6,7,8-tetrahydro-1,6-naphthyridine-6-carbonyl)hexahydrocyclopenta[c]pyrrol-2(1H)-yl)acetate] | 1100 |
| COC1COCCC1N[C@@H]1C[C@H]2CN(c3ccccc3)C[C@@]2(C(=O)N2CCc3ncc(C(F)(F)F)cc3C2)C1 (relative stereo) [Example 108, ((3aR,5R,6aR)-5-(((3S*,4S*)-3-Methoxytetrahydro-2H-pyran-4-yl)amino)-2-phenyloctahydrocyclopenta[c]pyrrol-3a-yl)(3-(trifluoromethyl)-7,8-dihydro-1,6-naphthyridin-6(5H)-yl)methanone] | 120 |
| COC1COCCC1N[C@@H]1C[C@H]2CN(c3nccs3)C[C@@]2(C(=O)N2CCc3ncc(C(F)(F)F)cc3C2)C1 (relative stereo) [Example 110, ((3aR,5R,6aR)-5-(((3S*,4S*)-3-Methoxytetrahydro-2H-pyran-4-yl)amino)-2-(thiazol-2-yl)octahydrocyclopenta[c]pyrrol-3a-yl)(3-(trifluoromethyl)-7,8-dihydro-1,6-naphthyridin-6(5H)-yl)methanone] | 150 |
| COC1COCCC1N[C@@H]1C[C@H]2CN(c3nc(C)no3)C[C@@]2(C(=O)N2CCc3ncc(C(F)(F)F)cc3C2)C1 (relative stereo) [Example 111, ((3aR,5R,6aR)-5-(((3S*,4S*)-3-Methoxytetrahydro-2H-pyran-4-yl)amino)-2-(3-methyl-1,2,4-oxadiazol-5-yl)octahydrocyclopenta[c]pyrrol-3a-yl)(3-(trifluoromethyl)-7,8-dihydro-1,6-naphthyridin-6(5H)-yl)methanone] | 270 |
| COC1COCCC1N[C@@H]1C[C@H]2CN(C3=NCCS3)C[C@@]2(C(=O)N2CCc3ncc(C(F)(F)F)cc3C2)C1 (relative stereo) [Example 112, ((3aR,5R,6aR)-2-(4,5-Dihydrothiazol-2-yl)-5-(((3S*,4S*)-3-methoxytetrahydro-2H-pyran-4-yl)amino)octahydrocyclopenta[c]pyrrol-3a-yl)(3-(trifluoromethyl)-7,8-dihydro-1,6-naphthyridin-6(5H)-yl)methanone] | 3660 |
| COC1COCCC1N[C@@H]1C[C@H]2CN(C3=NCCO3)C[C@@]2(C(=O)N2CCc3ncc(C(F)(F)F)cc3C2)C1 (relative stereo) [Example 113, ((3aR,5R,6aR)-2-(4,5-Dihydrooxazol-2-yl)-5-(((3S*,4S*)-3-methoxytetrahydro-2H-pyran-4-yl)amino)octahydrocyclopenta[c]pyrrol-3a-yl)(3-(trifluoromethyl)-7,8-dihydro-1,6-naphthyridin-6(5H)-yl)methanone] | 100 |
